Assay results taken from patent US12180202B1, “2-[(1,3-benzothiazol-2-yl)imino]-5,5-diphenylimidazolidin-4-one as an antimicrobial compound” (KING FAISAL UNIVERSITY, priority 2023, dated 2024).

Key:
Assay type in all cases: cell-based
Pseudomonas aeruginosa = test: agar plate disc-diffusion, antibacterial activity; conditions: nutrient agar, 37° C., 48 h
Method: (§1) The agar plate disc-diffusion method was applied. […] The discs were then placed onto the surface of agar plates (nutrient agar for bacteria and Sabouraud's dextrose agar for fungi) seeded with the test organism. Each plate contained 15 mL of the agar medium, previously seeded with 0.2 mL of the broth culture of each organism pregrown for 18 hours. The plates were incubated at 37° C. for 48 h, and 72 h for fungi. The inhibition zones were measured in mm. Discs impregnated with DMSO were used as a control, and its inhibition zone was subtracted from the tested compound actual inhibition zone.

Staphylococcus aureus = test: agar plate disc-diffusion, antibacterial activity; conditions: nutrient agar, 37° C., 48 h
Method: as §1

Escherichia coli = test: agar plate disc-diffusion, antibacterial activity; conditions: nutrient agar, 37° C., 48 h
Method: as §1

Bacillus cereus = test: agar plate disc-diffusion, antibacterial activity; conditions: nutrient agar, 37° C., 48 h
Method: as §1

[1] = test system: Chrysosporium keratinophilum; test: agar plate disc-diffusion, antifungal activity; conditions: Sabouraud's dextrose agar, 72 h
Method: as §1

Aspergillus flavus = test: agar plate disc-diffusion, antifungal activity; conditions: Sabouraud's dextrose agar, 72 h
Method: as §1

different microbes = test: antimicrobial activity screening, overall statement; conditions: against different microbes (bacteria and fungi of Tables 1 and 2)
Method: The agar plate disc-diffusion method was applied. Sterilized filter papers (6 mm in diameter) were wetted with 10 μL of a solution of 2-[(1,3-benzothiazol-2-yl)imino]-5,5-diphenylimidazolidin-4-one (3) to be tested, containing 10 mg/mL in DMSO, and the discs were allowed to air dry. The discs were then placed onto the surface of agar plates (nutrient agar for bacteria and Sabouraud's dextrose agar for fungi) seeded with the test organism. Each plate contained 15 mL of the agar medium, previously seeded with 0.2 mL of the broth culture of each organism pregrown for 18 hours. The plates were incubated at 37° C. for 48 h, and 72 h for fungi. The inhibition zones were measured in mm. Discs impregnated with DMSO were used as a control, and its inhibition zone was subtracted from the tested compound actual inhibition zone.

[2] = A = concentration of comp. = 10,000 μL
[3] = B = concentration of comp. = 30,000 μL
[4] = C = concentration of comp. = 50,000 μL
[5] = A = concentration of comp. = 10 mg/mL

Row | Compound | inhibition zone (Pseudomonas aeruginosa; [2]) [mm] | inhibition zone (Pseudomonas aeruginosa; [3]) [mm] | inhibition zone (Pseudomonas aeruginosa; [4]) [mm] | inhibition zone (Staphylococcus aureus; [2]) [mm] | inhibition zone (Staphylococcus aureus; [3]) [mm] | inhibition zone (Staphylococcus aureus; [4]) [mm] | inhibition zone (Escherichia coli; A =) [mm] | inhibition zone (Escherichia coli; [3]) [mm] | inhibition zone (Escherichia coli; [4]) [mm] | inhibition zone (Bacillus cereus; [2]) [mm] | inhibition zone (Bacillus cereus; [3]) [mm] | inhibition zone (Bacillus cereus; [4]) [mm] | inhibition zone [1, 2] [mm] | inhibition zone [1, 3] [mm] | inhibition zone [1, 4] [mm] | inhibition zone (Aspergillus flavus; [5]) [mm] | inhibition zone (Aspergillus flavus; [3]) [mm] | inhibition zone (Aspergillus flavus; [4]) [mm] | antimicrobial activities (different microbes)
1 | O=C(O)c1cn(C2CC2)c2cc(N3CCNCC3)c(F)cc2c1=O [Cip., ciprofloxacin, reference compound] | 29 | 30 | 53 | 43 | 44 | 53 | 30 | 39 | 60 | 29 | 30 | 42 | 29 | 30 | 53 | 29 | 30 | 42 | –
2 | O=C1N/C(=N/c2nc3ccccc3s2)NC1(c1ccccc1)c1ccccc1 [Compound 3, 2-[(1,3-benzothiazol-2-yl)imino]-5,5-diphenylimidazolidin-4-one] | 24 | 28 | 45 | 19 | 23 | 35 | 26 | 34 | 50 | 20 | 23 | 35 | 26 | 29 | 45 | 21 | 25 | 31 | excellent antimicrobial activities
